# Measured values published in paper PMC11149917, “Translational and Therapeutic Evaluation of RAS-GTP Inhibition by RMC-6236 in RAS-Driven Cancers” (Cancer Discovery, 2024).
# Where two headings read alike, the source gives them in different places.
# Assay: Mouse blood and tissue PK (LC/MS-MS)
# Assay type: in vivo
# Settings: mouse, tumor, oral
# Procedure: For single-dose PKPD study, mice were randomized and assigned into groups (n = 3/dose/time point). […] Blood and tissues, including the tumor, brain, colon, ear skin, and muscle, were harvested at indicated time points. […] The whole blood, tumor, brain, colon, and ear skin concentrations of RMC-6236 were determined using liquid chromatography–tandem mass spectrometry (LC/MS-MS) methods. […] After thorough mixing and centrifugation, the supernatant was diluted with water or directly analyzed on a Sciex 5500 or Sciex 6500+ triple quadrupole mass spectrometer equipped with an ACQUITY or Shimadzu UPLC system. […] Bioanalysis on blood and tissue samples from xenograft models was run at Pharmaron and Wuxi AppTec. Concentrations reported as below the quantification limit were treated as zero for PK analysis. PK parameters were calculated by noncompartmental analysis of the concentration–time profiles using Phoenix WinNonLin (version 8.3 Certara). Apparent terminal elimination half-life (t1/2) values were calculated as ln(2)/k, where k represents the terminal elimination rate constant. Area under the concentration–time curve (AUC) values were estimated using a linear trapezoidal method. AUClast values were calculated from the dosing time to the last quantifiable concentration. Maximum concentration (Cmax) was recorded as observed.
smiles,measurement,setting,value
CCn1c(-c2cc(N3CCN(C)CC3)cnc2[C@H](C)OC)c2c3cc(ccc31)-c1csc(n1)C[C@H](NC(=O)[C@H]1C[C@@H]1C)C(=O)N1CCC[C@H](N1)C(=O)OCC(C)(C)C2 [RMC-6236],concentration at 4 h,"25 mg/kg, HPAC #4, 25 mg/kg, individual animals, read-out: RMC-6236 (nM) Tumor",4090 nM
same,concentration at 8 h,"25 mg/kg, HPAC #4, 25 mg/kg, 8h, individual animals, read-out: RMC-6236 (nM) Tumor",4080 nM
same,concentration at 24 h,"25 mg/kg, HPAC #4, 25 mg/kg, 24h, individual animals, read-out: RMC-6236 (nM) Tumor",1260 nM
same,concentration at 8 h,"25 mg/kg, KP-4, study KP-4 #3, 25 mg/kg, 8h, read-out: RMC-6236 (nM) Tumor",3260 nM
same,concentration at 24 h,"25 mg/kg, KP-4, study KP-4 #3, 25 mg/kg, 24h, read-out: RMC-6236 (nM) Tumor",758 nM
same,concentration at 8 h,"25 mg/kg, KP-4, study KP-4 #4, 25 mg/kg, 8h, read-out: RMC-6236 (nM) Tumor",3030 nM
same,concentration at 24 h,"25 mg/kg, KP-4, study KP-4 #4, 25 mg/kg, 24h, read-out: RMC-6236 (nM) Tumor",840 nM
same,concentration at 48 h,"25 mg/kg, KP-4, study KP-4 #4, 25 mg/kg, 48h, read-out: RMC-6236 (nM) Tumor",312 nM
same,concentration at 4 h,"25 mg/kg, KP-4, study KP-4 #5, 25 mg/kg, read-out: RMC-6236 (nM) Tumor",2460 nM
same,concentration at 24 h,"25 mg/kg, KP-4, study KP-4 #5, 25 mg/kg, 24h, read-out: RMC-6236 (nM) Tumor",859 nM
same,concentration at 48 h,"25 mg/kg, KP-4, study KP-4 #5, 25 mg/kg, 48h, read-out: RMC-6236 (nM) Tumor",281 nM
same,concentration at 8 h,"25 mg/kg, KP-4, study KP-4 #6, 25 mg/kg, 8h, read-out: RMC-6236 (nM) Tumor",4160 nM
same,concentration at 24 h,"25 mg/kg, KP-4, study KP-4 #6, 25 mg/kg, 24h, read-out: RMC-6236 (nM) Tumor",1500 nM
same,concentration at 48 h,"25 mg/kg, KP-4, study KP-4 #6, 25 mg/kg, 48h, read-out: RMC-6236 (nM) Tumor",739 nM
same,concentration at 1 h,"25 mg/kg, Model Development Dataset, 25mg/kg_study8, read-out: Tumor Concentration",457 nM
same,concentration at 2 h,"25 mg/kg, Model Development Dataset, 25mg/kg_study8, 2 h, read-out: Tumor Concentration",1530 nM
same,concentration at 8 h,"25 mg/kg, Model Development Dataset, 25mg/kg_study8, 8 h, read-out: Tumor Concentration",2320 nM
same,concentration at 24 h,"25 mg/kg, Model Development Dataset, 25mg/kg_study8, 24 h, read-out: Tumor Concentration",995 nM
same,concentration at 240 h,"25 mg/kg, Model Development Dataset, 25mg/kg_study8r (doses every 24 h, 0-[…]), read-out: Tumor Concentration",410 nM
same,concentration at 1 h,"25 mg/kg, Model Validation Dataset, 25mg/kg_study6, read-out: Tumor Concentration",358 nM
same,concentration at 8 h,"25 mg/kg, Model Validation Dataset, 25mg/kg_study6, 8 h, read-out: Tumor Concentration",2570 nM
same,concentration at 24 h,"25 mg/kg, Model Validation Dataset, 25mg/kg_study6, 24 h, read-out: Tumor Concentration",890 nM
same,concentration at 48 h,"25 mg/kg, Model Validation Dataset, 25mg/kg_study6, 48 h, read-out: Tumor Concentration",690 nM
same,concentration at 72 h,"25 mg/kg, Model Validation Dataset, 25mg/kg_study6, 72 h",433 nM
same,concentration at 8 h,"25 mg/kg, NCI-H441 xenograft tumor, study NCI-H441#6, 25 mg/kg, 8h, read-out: RMC-6236 (nM) Tumor",2380 nM
same,concentration at 24 h,"25 mg/kg, NCI-H441 xenograft tumor, study NCI-H441#6, 25 mg/kg, 24h, read-out: RMC-6236 (nM) Tumor",989 nM
same,concentration at 48 h,"25 mg/kg, NCI-H441 xenograft tumor, study NCI-H441#6, 25 mg/kg, 48h, read-out: RMC-6236 (nM) Tumor",641 nM
same,concentration at 8 h,"25 mg/kg, NCI-H441 xenograft tumor, study NCI-H441#8, 25 mg/kg, 8h, read-out: RMC-6236 (nM) Tumor",2740 nM
same,concentration at 24 h,"25 mg/kg, NCI-H441 xenograft tumor, study NCI-H441#8, 25 mg/kg, 24h, read-out: RMC-6236 (nM) Tumor",1080 nM
same,concentration at 4 h,"25 mg/kg, sheet colon, KP-4, KP-4 #5, 25 mg/kg, read-out: RMC-6236 (nM) Tumor",5860 nM
same,concentration at 24 h,"40 mg/kg, KP-4, study KP-4 #4, 40 mg/kg, 24h, read-out: RMC-6236 (nM) Tumor",1620 nM
same,concentration at 48 h,"40 mg/kg, KP-4, study KP-4 #4, 40 mg/kg, 48h, read-out: RMC-6236 (nM) Tumor",661 nM
same,concentration at 1 h,"40 mg/kg, Model Development Dataset, 40mg/kg_study8, read-out: Tumor Concentration",947 nM
same,concentration at 2 h,"40 mg/kg, Model Development Dataset, 40mg/kg_study8, 2 h, read-out: Tumor Concentration",3090 nM
same,concentration at 8 h,"40 mg/kg, Model Development Dataset, 40mg/kg_study8, 8 h, read-out: Tumor Concentration",3380 nM
same,concentration at 24 h,"40 mg/kg, Model Development Dataset, 40mg/kg_study8, 24 h, read-out: Tumor Concentration",1810 nM
same,concentration at 240 h,"40 mg/kg, Model Development Dataset, 40mg/kg_study8r (doses every 24 h, 0-[…]), read-out: Tumor Concentration",876 nM
same,concentration at 2 h,"40 mg/kg, NCI-H441 xenograft tumor, study NCI-H441#8, 40 mg/kg, 2h, read-out: RMC-6236 (nM) Tumor",3260 nM
same,concentration at 8 h,"40 mg/kg, NCI-H441 xenograft tumor, study NCI-H441#8, 40 mg/kg, 8h, read-out: RMC-6236 (nM) Tumor",2820 nM
same,concentration at 4 h,"50 mg/kg, HPAC #3, 50 mg/kg, individual animals, read-out: RMC-6236 (nM) Tumor",4620 nM
same,concentration at 8 h,"50 mg/kg, HPAC #3, 50 mg/kg, 8h, individual animals, read-out: RMC-6236 (nM) Tumor",6090 nM
same,concentration at 24 h,"50 mg/kg, HPAC #3, 50 mg/kg, 24h, individual animals, read-out: RMC-6236 (nM) Tumor",3810 nM
same,concentration at 48 h,"50 mg/kg, HPAC #3, 50 mg/kg, 48h, individual animals, read-out: RMC-6236 (nM) Tumor",1440 nM
same,concentration at 8 h,"50 mg/kg, KP-4, study KP-4 #3, 50 mg/kg, 8h, read-out: RMC-6236 (nM) Tumor",5580 nM
same,concentration at 24 h,"50 mg/kg, KP-4, study KP-4 #3, 50 mg/kg, 24h, read-out: RMC-6236 (nM) Tumor",2070 nM
same,concentration at 48 h,"50 mg/kg, KP-4, study KP-4 #3, 50 mg/kg, 48h, read-out: RMC-6236 (nM) Tumor",489 nM
same,concentration at 1 h,"50 mg/kg, Model Validation Dataset, 50mg/kg_study6, read-out: Tumor Concentration",1310 nM
same,concentration at 8 h,"50 mg/kg, Model Validation Dataset, 50mg/kg_study6, 8 h, read-out: Tumor Concentration",4800 nM
